Here are results for one compound from patent publication US20210163459A1, “PESTICIDALLY ACTIVE AZETIDINE SULFONES AMIDE ISOXAZOLINE DERIVATIVES” (SYNGENTA CROP PROTECTION AG, priority 2018, published 2021).

Broadly, the mortality is the percentage killed.

The test system of experiment [1] is Spodoptera littoralis. In words: Spodoptera littoralis (Egyptian Cotton Leaf Worm) test on sprayed cotton leaf discs. It is filed as in vivo. Conditions: foliar, 72 h, application rate of 200 ppm, L1 larvae, assessed 3 days after infestation in comparison to untreated samples, read-out: control (mortality, anti-feeding effect, growth inhibition). On the procedure: Spodoptera littoralis (Egyptian Cotton Leaf Worm)
Cotton leaf discs were placed onto agar in 24-well microtiter plates and sprayed with aqueous test solutions prepared from 10′000 ppm DMSO stock solutions. After drying the leaf discs were infested with five L1 larvae. The samples were assessed for mortality, anti-feeding effect, and growth inhibition in comparison to untreated samples 3 days after infestation. Control of Spodoptera littoralis by a test sample is given when at least one of the categories mortality, anti-feedant effect, and growth inhibition is higher than the untreated sample.

Experiment [2] concerns Euschistus heros. In words: Euschistus heros (Neotropical Brown Stink Bug) test on sprayed soybean leaves. The conditions noted are these: 120 h, application rate of 200 ppm, N2 nymphs, assessed 5 days after infestation in comparison to untreated samples, read-out: effect in at least one of the two categories (mortality or growth inhibition). It is filed as in vivo. On the procedure: Euschistus heros(Neotropical Brown Stink Bug)
Soybean leaves on agar in 24-well microtiter plates were sprayed with aqueous test solutions prepared from 10′000 ppm DMSO stock solutions. After drying the leaves were infested with N2 nymphs. The samples were assessed for mortality and growth inhibition in comparison to untreated samples 5 days after infestation.
The following compounds gave an effect of at least 80% in at least one of the two categories (mortality or growth inhibition) at an application rate of 200 ppm: A1, A2

As to `COC(=O)OCN(C(=O)c1ccc(C2=NO[C@@](c3cc(Cl)c(F)c(Cl)c3)(C(F)(F)F)C2)cc1C)C1CN(S(=O)(=O)C(F)F)C1` [Compound A2, [[4-[(5S)-5-(3,5-dichloro-4-fluoro-phenyl)-5-(trifluoromethyl)-4H-isoxazol-3-yl]-2-methyl-benzoyl]-[1-(difluoromethylsulfonyl)azetidin-3-yl]amino]methyl methyl carbonate], in experiment [1], the mortality at 200 ppm was at least 80%. Also, in experiment [2], the percent effect (mortality or growth inhibition) at 200 ppm was at least 80%.
